Assay results: US8835433B2, “Optically pure diastereomers of 10-Propargyl-10-deazaaminopterin and methods of using same for the treatment of cancer” (Allos Therapeutics, Inc., priority 2010, dated 2014)

System: tumor xenotransplant
Assay: In vivo xenograft models with solid tumors and lymphomas
Conditions: nude female mice, IP injection; some / other explants; Example 6
Experimental: Nude female mice are inoculated subcutaneously in the right flank with appropriate tumor cells as discussed in Example 5 to establish the xenotransplant. Tumor volume and body weights are monitored twice a week. Once the established tumor reaches 75-150 mm^3 the mice are randomized to a treatment group, either control, racemic PDX, PDX-10a, or PDX-10b. Treatments are administered by IP injection. Phosphate buffered saline is administered as control vehicles.

| Structure (SMILES) | xenograft activity relative to racemate and other diastereomer |
| --- | --- |
| C#CC[C@H](Cc1cnc2nc(N)nc(N)c2n1)c1ccc(C(=O)N[C@@H](CCC(=O)O)C(=O)O)cc1 (single isomer, unassigned) [PDX-10b] | increased activity relative to racemic PDX and/or PDX-10a |
| C#CC[C@@H](Cc1cnc2nc(N)nc(N)c2n1)c1ccc(C(=O)N[C@@H](CCC(=O)O)C(=O)O)cc1 (single isomer, unassigned) [PDX-10a] | increased activity relative to racemic PDX and/or PDX-10b |
